Source: patent publication US9872903B2, “Targeting thymidine kinase photosensitizer and pharmaceutical composition and use for cancer treatment thereof” (ZHEJIANG HISUN PHARMACEUTICAL CO., LTD., priority 2012, dated 2018)

Experiments:
tumor cells of PC3 line = assay: in vivo therapeutic effect of PDT in tumor-bearing Scid mice; conditions: 665 nm; for curative ratio: photosensitizer 0.5 μmol/kg i.v., light 24 h later, 135 J/cm^2, 75 mW/cm^2, 60 days, 10 mice; for mice with no tumor relapse observed after 60 days: photosensitizer 0.5 μmol/kg, 135 J/cm^2, 75 mW/cm^2
Method: Procedure: subcutaneous injection of 3×10^5 tumor cells were performed to the mice, and the cells were allowed to grow so that the diameter can reach 4-5 mm. The hairs at the inoculation site were shaved one day before laser irradiation, and the photosensitizer at various concentrations was intravenously injected to the mice. The mice were not anesthetized, and were limited in a plastic circle 24 h after photosensitizer injection (such as Compound 1 or 3). Subsequently, light treatment was performed after the emission wavelength was tuned to the activation wavelength of the drug using an argon-pumped dye laser monochromes, wherein paclitaxel was additionally injected 8 h before exposure in the combination therapy group. The parameters involved in the therapy included a diameter of 1 cm^2, fluence rate of 75 mW/cm^2 and total light dosage of 135 J/cm^2.
If tumor growth was observed, two perpendicular values L and W (perpendicular to L) were used for the detection, and the volume of tumor can be calculated according to the equation V=(L×W^2)/2. If no evidence for regeneration can be observed 60 days after PDT therapy, the mice can be considered as cured. There were 10 mice in each group at each concentration.
The dosages of HPPH and HPPH-thymidine conjugate used in this experiment were both 0.5 μmol/kg. The single dosage of paclitaxel for additional injection 8 h before exposure was 35 mg/kg. The irradiation parameters included 665 nm, 135 J/cm^2, and 75 mW/cm^2. The curative ratio can be simply calculated based on the equation: number of mice without tumor regeneration×100%/total number of mice. For example, 60 days after administration of Compound 3, i.e., HPPH-thymidine conjugate of the present invention, there were 5 mice without tumor regeneration, and there were totally 10 mice in each group. Accordingly, the curative ratio is 5×100%/10, i.e., 50%.

PC3 cell line [1] = assay: in vitro light-induced cytotoxicity test (PDT, MTT assay); type: cell-based, human; conditions: for survival rate: Pharmaceutical 3 0.003 μM
Method: In the present invention, the in vitro therapeutic effect of PDT was compared among HPPH, HPPH-thymidine conjugate and HPPH-thymidine conjugate in combination with chemotherapeutic agent paclitaxel in an in vitro light-induced cytotoxicity test.
Procedure: in this Example, a highly metastatic and […] prostatic cancer cell, PC3 cell line, was selected. The PC3 cells were cultured in RPMI 1640 medium supplemented with 10% fetal bovine serum, L-glutamine, penicillin, and streptomycin at 37° C., 5% CO2 and 95% air, and 100% humidity. Subsequently, the PC3 cells were inoculated in the complete medium in a 96-well plate at the density of 5×10^3 cell/well with 6 multiple wells arranged. After cultured at 37° C. overnight, the cells were treated by the photosensitizer or paclitaxel at gradient concentrations in darkness for 24 h. For the treatment using HPPH-thymidine conjugate in combination with paclitaxel, paclitaxel was additionally injected 8 h before exposure, and the concentrations of paclitaxel and the photosensitizer were the same as above.
After the pharmaceutical-containing medium was replaced by fresh medium, the cells were irradiated by light at 665 nm and with a dosage rate of 3.2 mW/cm^2 using an argon-pumped dye laser.
After treated by PDT or paclitaxel alone, the cells were cultured for 48 h at 37° C. in darkness. The phototoxicity was determined by MTT assay (by comparison of the survival rate between the test cells and the untreated cells). The dosage-response survival curve was also plotted. In the Figures, the value was the average of 3 independent experiments, and the error bar stood for standard deviation. In each treatment, the concentration of Compound 3, i.e., HPPH-thymidine conjugate, was 0.06 μM, and the concentration of Compound 1, i.e., HPPH, was 0.06 μM, and the concentration of paclitaxel was 2 nM.

[2] = system: PC-3 (human prostatic cancer) cell line; assay: in vitro light cytotoxicity test of PDT at 675 nm or 703 nm (MTT); type: cell-based
Method: The in vitro therapeutic effect of PDT was compared among the following compounds in PC-3 (human prostatic cancer) cell line by in vitro light cytotoxicity test. The procedure was the same as that in Example 4. Briefly, PC3 cells were coated onto the wells of a 96-well plate and adhered for 6-24 h. Subsequently, the cells were treated by the PDT photosensitizer at various concentrations for 24 h, followed by irradiation at 675 nm (dose rate of 3.2 mW/cm^2) or 703 nm (dose rate of 3.2 mW/cm^2) using various high dosages. After 48 h, the cell growth was evaluated by colorimetry, wherein the insoluble formazan product generated in MTT method was dissolved and its concentration was detected at 570 nm through optical density.
The results of the treatment at 675 nm were shown in FIG. 4, wherein PLH-14 was Compound 5 in Example 2, and PLH-13 was Compound 6, i.e., thymidine conjugate of Compound 5, in Example 2. The concentration of both PLH-13 and PLH-14 was 0.1 μM. The results of the treatment at 703 nm were shown in FIG. 5, wherein 277-COOH was Compound 7 in Example 3, and PLH-12 was Compound 8, i.e., thymidine conjugate of Compound 7, in Example 3. The concentration of both 277-COOH and PLH-12 was 0.05 μM. As shown in FIG. 4 and FIG. 5, the in vitro therapeutic effect of PDT using the photosensitizer was enhanced by conjugation of Compound 5, […] Compound 7 with thymidine.

PC3 cell line [3] = assay: morphology change by DAPI staining; type: cell-based, human; conditions: paclitaxel pretreatment

2-((1′-n-hexyloxy)ethyl)-2-devinyl-pyropheophorbide-α [Compound 1, reference compound]
curative ratio (tumor cells of PC3 line): 30% | mice with no tumor relapse observed after 60 days (tumor cells of PC3 line): 3/10

CCCCCCOC(C)c1c(C)c2cc3nc(c4c5[nH]c(cc6nc(cc1[nH]2)C(C)=C6CC)c(C)c5C(=O)C4)C(CCC(=O)OCC1OC(n2cc(C)c(=O)[nH]c2=O)CC1O)C3C (centres unmarked) [Compound 3, 17^3-thymidylyl-3-((1′-n-hexyloxy)ethyl)-3-devinyl-pyropheophorbide]
curative ratio (tumor cells of PC3 line): 50% | mice with no tumor relapse observed after 60 days (tumor cells of PC3 line): 5/10 | light dosage of IC50 (PC3 cell line [1]; PDT with Compound 3 0.06 μM alone, 665 nm, 3.2 mW/cm^2, MTT after 48 h): 0.13 J/cm^2 | survival rate (PC3 cell line [1]; light dosage 0.25 J/cm^2, before action of paclitaxel): 100% | survival rate (PC3 cell line [1]; light dosage 0.25 J/cm^2, under the action of paclitaxel (0.000704)): 80% | in vitro therapeutic effect of PDT (cell survival vs light dosage, FIG. 3) (PC3 cell line [1]; photosensitizer 0.06 μM, paclitaxel 2 nM, 665 nm): higher than that using HPPH

CCCCCCOC(C)c1c(C)c2[nH]c1cc1nc(cc3[nH]c4c(c5nc(c2-c2ccc(C(=O)OCC6OC(n7cc(C)c(=O)[nH]c7=O)CC6O)cc2)C(C)C5CCC(=O)OCC2OC(n5cc(C)c(=O)[nH]c5=O)CC2O)CC(=O)c4c3C)C(CC)=C1C (centres unmarked) [Compound 6, 17^3-thymidylyl-20-(4-thymidylyloxycarbonyl)phenyl-3-((1′-n-hexyloxy)ethyl)-3-devinyl-pyro pheophorbide]
in vitro therapeutic effect of PDT (percentage of control growth, FIG. 4) ([2]; 675 nm, 3.2 mW/cm^2, 0.1 μM, compared with unconjugated PLH-14 (Compound 5)): enhanced

CCCCOC(C)c1c(C)c2cc3nc(c4c5[nH]c(cc6nc(cc1[nH]2)C(C)=C6CC)c(C)c5C(=O)N(CCCC)C4=O)C(CCC(=O)OCC1OC(n2cc(C)c(=O)[nH]c2=O)CC1O)C3C (centres unmarked) [Compound 8]
in vitro therapeutic effect of PDT (relative growth rate, FIG. 5) ([2]; 703 nm, 3.2 mW/cm^2, 0.05 μM, compared with unconjugated 277-COOH (Compound 7)): enhanced

CC(=O)O[C@H]1C(=O)[C@@]2(C)[C@H]([C@H](OC(=O)c3ccccc3)[C@]3(O)C[C@H](OC(=O)[C@H](O)[C@@H](NC(=O)c4ccccc4)c4ccccc4)C(C)=C1C3(C)C)[C@]1(OC(C)=O)CO[C@@H]1C[C@@H]2O [paclitaxel]
mechanism of cell death (PC3 cell line [3]): apoptosis mechanism
